SMILES strings stand for the structures. Values joined by “and” are separate entries in the source; they are usually repeats but may differ in a detail not shown here. Equal values may be shown once.

One data set concerns OPM2 cells. Put plainly: CFZ potency increase, ratio of CC50 of CFZ alone / with compound. Format: cell-based, human. Conditions: OPM2, compound at 7.5 μM (Table 5). An excerpt:
Human multiple myeloma cells OPM2 (ACC 50, DSMZ) are maintained at 0.3-0.7 10^6 cells/mL in RPMI1640 medium supplemented with GlutaMAX™, 10% fetal bovine serum and 1% penicillin-streptomycin.
We developed a cell-based, high content assay allowing the rapid detection and quantification of apoptotic cells. Caspase-3/7 activity was detected in real-time using the NucView™ 488 Caspase-3 substrate (Biotium), where the caspase-3/7 substrate peptide sequence DEVD is attached to a nucleic acid dye. The NucView™ 488 reagent crosses the plasma membrane to enter the cytoplasm, where the dye is unable to bind to DNA and remains non-fluorescent. Once the substrate has been cleaved by activated caspase-3/7 in apoptotic cells, the high-affinity DNA dye is released and migrates to the cell nucleus to stain the nucleus with a bright green fluorescence. All cell nuclei were also labeled with Hoechst 33342 (Ozyme).
For OPM2, briefly, nanoliters of compound and cytotoxic agent in DMSO stock solutions were first transferred and combined in 384-microtiter well plate using an Echo555 liquid handler (Labcyte). The exact volume of each solution to be transferred was calculated to achieve subsequently the target concentration in the 70 μL volume incubate. Final DMSO content was maintained at 0.2%. Then, 70 μL of cells treated with 1 μM NucView™ 488 and 20 ng/mL Hoechst 33342 were distributed to the plates to obtain a final density of 12,000 cells per well. The microplates were incubated at 37° C. and 5% CO2 in an automated LiCONiC STR240 UB cell incubator, and images were acquired at various times at 405 nm and 488 nm with the high-resolution automated confocal microscope INCell 6000 (GE). Four fields per well were read with the 20× objective in a confocal mode. The BioCel workstation was managed by VWorks automation control software
For all cells, Columbus software (Perkin) was used for image quantification and analysis. First, Hoechst 33342 staining was used for an automated detection of nuclei, in which the mean fluorescence intensity for NucView™ 488 was quantified. Inspection of control cells at initial time was used to set a threshold level of NucView™ 488 fluorescence to separate non apoptotic cells from apoptotic cells. Finally, for each well, the result was expressed as percentage of apoptotic cells in the total cell population. CC50 values were calculated from concentration-response curves by a nonlinear regression analysis at four parameters using Excel Fit or GraphPad Prim softwares.
Activity=(% of apoptotic cells with cytotoxic agent in combination with compound of the invention)/(% of apoptotic cells with cytotoxic agent alone). • Ratio of CC50: The CC50 of the cytotoxic agent was calculated in absence and in presence of a compound of the invention.
Activity=(CC50 of agent alone)/(CC50 of agent with compound). • Ratio of AUC. Activity=(Area of the dose-concentration curve of cytotoxic agent combined with one concentration of compound)/(Area of the dose-concentration curve of cytotoxic agent alone). (Lehar J. et al, 2008 (molecular systems biology 4:215)).
As for `O=C(C[C@@H](Cc1c[nH]c2ccccc12)n1cc(C2COCCN2C(=O)c2ccc(F)c(F)c2)nn1)NO` (stereo partly drawn) [Compound 90, (3R)-3-[4-[4-(3,4-difluorobenzoyl)morpholin-3-yl]triazol-1-yl]-4-(1H-indol-3-yl)butanehydroxamic acid], the “Activity: ratio (CC50 of CFZ alone)/(CC50 of CFZ in combination with compound of the invention)” value (“Activity: ratio” below) is 1.4. On to `O=C(C[C@@H](Cc1csc2ccccc12)n1cc(CNC(=O)c2ccc(F)c(F)c2)nn1)NO` [Compound 179, (R)—N-((1-(1-(benzo[b]thiophen-3-yl)-4-(hydroxyamino)-4-oxobutan-2-yl)-1H-1,2,3-triazol-4-yl)methyl)-3,4-difluorobenzamide], for which the “Activity: ratio” value worked out at 1.6. On the same count and under the same terms, to `CC(NC(=O)c1ccc(F)cc1)c1cn([C@@H](CC(=O)NO)Cc2ccc3c(c2)CCCC3)nn1` (stereo partly drawn) [Compound 167, 4-fluoro-N-(1-(1-((R)-4-(hydroxyamino)-4-oxo-1-(5,6,7,8-tetrahydronaphthalen-2-yl)butan-2-yl)-1H-1,2,3-triazol-4-yl)ethyl)benzamide] belongs 2.5; to `O=C(CC(Cc1ccc2ccccc2c1)c1nc(CNC(=O)c2ccccc2)no1)NO` (stereo not drawn) [Compound 28, N-[5-(1-hydroxycarbamoylmethyl-2-naphthalen-2-yl-ethyl)-[1,2,4]oxadiazol-3-ylmethyl]-benzamide], 2.0; to `O=C(C[C@@H](Cc1c[nH]c2ccccc12)n1cc(C(Cc2ccc(OCc3ccccc3)cc2)NC(=O)c2ccc(F)c(F)c2)nn1)NO` (stereo partly drawn) [Compound 89, N-[2-(4-benzyloxyphenyl)-1-[1-[(1R)-3-(hydroxyamino)-1-(1H-indol-3-ylmethyl)-3-oxo-propyl]triazol-4-yl]ethyl]-3,4-difluoro-benzamide], 7.6.

For the compound `O=C(C[C@@H](Cc1ccc2sccc2c1)n1cc(CNC(=O)c2ccc(F)cc2)nn1)NO` [Compound 173, (R)—N-((1-(1-(benzo[b]thiophen-5-yl)-4-(hydroxyamino)-4-oxobutan-2-yl)-1H-1,2,3-triazol-4-yl)methyl)-4-fluorobenzamide], the “Activity: ratio” value stood at 2.1. On the same count and under the same terms, the figure for `O=C(C[C@@H](Cc1ccc2ccccc2c1)n1nncc1CNC(=O)CCc1ccccc1)NO` [Compound 25, (R)—N-hydroxy-4-naphthalen-2-yl-3-{5-[(3-phenyl-propionylamino)-methyl]-[1,2,3]-triazol-1-yl}-butyramide] is 1.4; for `O=C(C[C@@H](Cc1ccc2ccccc2c1)n1cc([C@H](CO)NC(=O)c2ccc(F)c(F)c2)nn1)NO` [Compound 96, 3,4-difluoro-N-[(1R)-2-hydroxy-1-[1-[(1R)-3-(hydroxyamino)-1-(2-naphthylmethyl)-3-oxo-propyl]triazol-4-yl]ethyl]benzamide] it is 1.4; for `CC(NC(=O)c1ccc(F)cc1)c1cn([C@@H](CC(=O)NO)Cc2csc3ccccc23)nn1` (stereo partly drawn) [Compound 181, N-(1-(1-((R)-1-(benzo[b]thiophen-3-yl)-4-(hydroxyamino)-4-oxobutan-2-yl)-1H-1,2,3-triazol-4-yl)ethyl)-4-fluorobenzamide] it is 1.9.

Regarding `O=C(C[C@@H](Cc1ccc2ccccc2c1)n1nncc1CNC(=O)C1CCCCC1)NO` [Compound 13, (R)-Cyclohexanecarboxylic acid [3-(1-hydroxycarbamoylmethyl-2-naphthalen-2-yl-ethyl)-3H-[1,2,3]triazol-4-ylmethyl]-amide], the “Activity: ratio” value turned out to be 1.2. As for `O=C(C[C@@H](Cc1cc2ccccc2s1)n1cc(CNC(=O)c2ccc(F)cc2)nn1)NO` [Compound 182, (S)—N-((1-(1-(benzo[b]thiophen-2-yl)-4-(hydroxyamino)-4-oxobutan-2-yl)-1H-1,2,3-triazol-4-yl)methyl)-4-fluorobenzamide], the “Activity: ratio” value is 2.7. Still for that read-out and setting: the figure for `O=C(C[C@@H](Cc1ccc2ccccc2c1)n1cc(COCc2ccccc2)nn1)NO` [Compound 23, (R)-3-(4-benzyloxymethyl-[1,2,3]triazol-1-yl)-N-hydroxy-4-naphthalen-2-yl-butyramide] is 1.1; for `O=C(C[C@@H](Cc1ccc2ccsc2c1)n1cc(CNC(=O)c2ccc(F)cc2)nn1)NO` [Compound 174, (R)—N-((1-(1-(benzo[b]thiophen-6-yl)-4-(hydroxyamino)-4-oxobutan-2-yl)-1H-1,2,3-triazol-4-yl)methyl)-4-fluorobenzamide] it is 2.0 and 1.5; for `O=C(C[C@@H](Cc1ccc2ccccc2c1)n1cc(C2COCCN2C(=O)c2ccc(F)c(F)c2)nn1)NO` (stereo partly drawn) [Compound 95, (3R)-3-[4-[4-(3,4-difluorobenzoyl)morpholin-3-yl]triazol-1-yl]-4-(2-naphthyl)butanehydroxamic acid] it is 2.1.

For `O=C(C[C@@H](Cc1ccc2c(c1)CCCC2)n1cc(CNC(=O)c2ccc(F)cc2)nn1)NO` [Compound 165, (R)-4-fluoro-N-((1-(4-(hydroxyamino)-4-oxo-1-(5,6,7,8-tetrahydronaphthalen-2-yl)butan-2-yl)-1H-1,2,3-triazol-4-yl)methyl)benzamide], the “Activity: ratio” value is 1.9. Still for that read-out and setting: to `CN(Cc1cn([C@@H](CC(=O)NO)Cc2ccc3ccccc3c2)nn1)C(=O)c1ccc(F)cc1` [Compound 185, (R)-4-fluoro-N-((1-(4-(hydroxyamino)-1-(naphthalen-2-yl)-4-oxobutan-2-yl)-1H-1,2,3-triazol-4-yl)methyl)-N-methylbenzamide] belongs 1.8; to `O=C(NCc1noc(C(Cc2ccc3ccccc3c2)C(=O)NO)n1)c1ccc(F)cc1` (stereo not drawn) [Compound 44, 4-Fluoro-N-[5-(1-hydroxycarbamoyl-2-naphthalen-2-yl-ethyl)-[1,2,4]oxadiazol-3-ylmethyl]-benzamide], 1.2. Same read-out and setting: the figure for `O=C(C[C@@H](Cc1ccc2ccccc2c1)n1cc(CNS(=O)(=O)c2ccc(F)cc2)nn1)NO` [Compound 6, (R)-3-{4-[(4-Fluoro-benzenesulfonylamino)-methyl]-[1,2,3]triazol-1-yl}-N-hydroxy-4-naphthalen-2-yl-butyramide] is 1.3. Same read-out and setting: to `O=C(C[C@@H](Cc1ccc2cccnc2c1)n1cc(CNC(=O)c2ccc(F)c(F)c2)nn1)NO` [Compound 170, (R)-3,4-difluoro-N-((1-(4-(hydroxyamino)-4-oxo-1-(quinolin-7-yl)butan-2-yl)-1H-1,2,3-triazol-4-yl)methyl)benzamide] belongs 1.5; to `Cn1ccc2cc(C[C@H](CC(=O)NO)n3cc(CNC(=O)c4ccc(F)cc4)nn3)ccc21` [Compound 177, (R)-4-fluoro-N-((1-(4-(hydroxyamino)-1-(1-methyl-1H-indol-5-yl)-4-oxobutan-2-yl)-1H-1,2,3-triazol-4-yl)methyl)benzamide], 1.7.

Staying with this data set, now noted: OPM2, compound at 7.5 μM (Table 6).
On to `O=C(C[C@@H](Cc1c[nH]c2ccccc12)n1cc(C(Cc2ccc(OCc3ccccc3)cc2)NC(=O)c2ccc(F)c(F)c2)nn1)NO` (stereo partly drawn) [Compound 89, N-[2-(4-benzyloxyphenyl)-1-[1-[(1R)-3-(hydroxyamino)-1-(1H-indol-3-ylmethyl)-3-oxo-propyl]triazol-4-yl]ethyl]-3,4-difluoro-benzamide], for which the “Activity: ratio” value was 7.6.

Source of the values: patent US20220073475A1, “5-MEMBERED HETEROARYL COMPOUNDS CONTAINING A HYDROXAMATE MOIETY AND THEIR USE” (UNIVERSITE DE LILLE, priority 2019, published 2022).
